Read-outs that look alike come from different tables or passages of the source.
Target: T1, human 5-HT6 receptor (Homo sapiens, UniProt P50406)
T1 construct: host or cells: CHO-K1 cells, stably transfected; membranes prepared in house
Assay: Human 5-HT6 Receptor Binding Assay ([3H]LSD displacement, scintillation beads)
Conditions: membranes of CHO-K1 cells with recombinant human 5-HT6, 4 nM [3H]LSD, read-out: h5-HT6 (Ki)

T1 sequence (P50406 whole entry): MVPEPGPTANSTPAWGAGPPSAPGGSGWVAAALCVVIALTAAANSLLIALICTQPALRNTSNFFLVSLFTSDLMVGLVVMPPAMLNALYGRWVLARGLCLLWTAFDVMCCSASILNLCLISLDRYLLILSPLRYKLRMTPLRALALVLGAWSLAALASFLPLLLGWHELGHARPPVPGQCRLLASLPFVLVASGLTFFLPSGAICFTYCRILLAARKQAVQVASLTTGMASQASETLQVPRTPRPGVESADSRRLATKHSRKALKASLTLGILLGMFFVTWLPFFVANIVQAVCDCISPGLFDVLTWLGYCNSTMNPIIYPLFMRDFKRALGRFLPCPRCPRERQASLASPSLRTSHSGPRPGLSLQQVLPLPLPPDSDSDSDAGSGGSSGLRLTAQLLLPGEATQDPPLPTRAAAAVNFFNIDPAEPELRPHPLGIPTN

| Ki (Table 1, class symbols) [nM] | Ki (specific data) [nM] | SMILES |
| --- | --- | --- |
| < 500 |  | O=S(=O)(c1cc(F)cc(Cl)c1)c1ccc2c3c(oc2c1)CNCC3 [Example 207] |
|  | 93 | O=S(=O)(c1cccc(F)c1)c1ccc2c3c([nH]c2c1)C(C(F)(F)F)NCC3 (stereo not drawn) [Example 527, 7-[(3-fluorophenyl)sulfonyl]-1-(trifluoromethyl)-2,3,4,9-tetrahydro-1H-beta-carboline] |
| < 500 |  | COc1cc(OCC2CC2)cc(S(=O)(=O)c2ccc3c(c2)OC2CNCCC32)c1 (stereo not drawn) [Example 585] |
| < 500 |  | O=S(=O)(c1cccc(F)c1)c1ccc2c3c(oc2c1)C(C(F)(F)F)NCC3 (stereo not drawn) [Example 510] |
| < 500 |  | O=S(=O)(Oc1ccc2c(c1)OC1CNCCC21)c1ccccc1C(F)(F)F (stereo not drawn) [Example 674] |
| 500 to 1000 |  | Cc1ccc(S(=O)(=O)Oc2ccc3c(c2)OC2CNCCC32)cc1F (stereo not drawn) [Example 652] |
| < 500 |  | COc1cccc(S(=O)(=O)c2ccc3oc4c(c3c2)CCNC4)c1 [Example 246] |
| < 500 | 1.5 | CC1(C)NCCc2c1oc1cc(S(=O)(=O)c3cccc(F)c3)ccc21 [Example 1, 7-[(3-Fluorophenyl)sulfonyl]-1,1-dimethyl-1,2,3,4-tetrahydro[1]benzofuro[2,3-c]pyridine] |
| < 500 |  | O=S(=O)(c1cccc(Br)c1)c1ccc2oc3c(c2c1)CCNC3 [Example 263, 6-[(3-bromophenyl)sulfonyl]-1,2,3,4-tetrahydro[1]benzofuro[2,3-c]pyridine] |
| < 500 |  | O=S(=O)(c1ccc2c3c(oc2c1)[C@@]1(CCOC1)NCC3)c1cc(F)ccc1F (single isomer, unassigned) [Example 109] |
| < 500 |  | CC(=O)NCCC1NCCc2c1oc1cc(S(=O)(=O)c3cccc(F)c3)ccc21 (racemic) [Example 536, N-(2-{7-[(3-fluorophenyl)sulfonyl]-1,2,3,4-tetrahydro[1]benzofuro[2,3-c]pyridin-1-yl}ethyl)acetamide] |
| < 500 |  | O=S(=O)(c1cc(F)cc(OCC(F)(F)F)c1)c1ccc2c(c1)OC1CNCCC21 (stereo not drawn) [Example 403] |
| < 500 |  | O=S(=O)(c1cc(F)cc(F)c1)c1ccc2c(c1)OC1CNCCC21 (stereo not drawn) [Example 131] |
| < 500 |  | CC1NCCc2c1oc1ccc(S(=O)(=O)c3cccc(F)c3)cc21 (stereo not drawn) [Example 283] |
| < 500 |  | CN(c1ccc2c(c1)OC1CNCCC21)S(=O)(=O)c1c(Cl)nc2sccn12 (stereo not drawn) [Example 835, 6-Chloro-N-[1,2,3,4,4a,9a-hexahydro[1]benzofuro[2,3-c]pyridin-7-yl]-N-methylimidazo[2,1-b][1,3]thiazole-5-sulfonamide] |
| < 500 |  | O=S(=O)(c1cccc(OC2CCOCC2)c1)c1ccc2c(c1)OC1CNCCC21 (stereo not drawn) [Example 571] |
| < 500 |  | [O-][S+](c1ccc2oc3c(c2c1)CCNC3)c1ccccc1-c1ccccc1 (stereo not drawn) [Example 279] |
| < 500 |  | O=S(=O)(c1ccc(Oc2ccccc2)cc1)c1ccc2c(c1)OC1CNCCC21 (stereo not drawn) [Example 116] |
| < 500 |  | O=S(=O)(c1ccc2c(c1)OC1CNCCC21)c1cccc(OCC2CCOCC2)c1F (stereo not drawn) [Example 482] |
| < 500 |  | Cc1cc(S(=O)(=O)c2ccc3oc4c(c3c2)CCNC4)ccc1F [Example 268] |
| < 500 |  | CC1OCCC12NCCc1c2oc2cc(S(=O)(=O)c3cccc(F)c3)ccc12 (single isomer, unassigned) [Example 60, 7-[(3-Fluorophenyl)sulfonyl]-2′-methyl-3,4,4′,5′-tetrahydro-2H-spiro[1-benzofuro[2,3-c]pyridine-1,3′-furan]] |
| < 500 |  | COc1ccc(S(=O)(=O)c2ccc3c4c(oc3c2)C(C)(C)NCC4)cc1F [Example 288] |
| < 500 |  | CC(C)Oc1ccccc1S(=O)(=O)c1ccc2c(c1)OC1CNCCC21 (stereo not drawn) [Example 419] |

| Ki (Table 1, class symbols) [nM] | Ki (specific data) [nM] | SMILES |
| --- | --- | --- |
| 500 to 1000 |  | O=S(=O)(c1ccncc1)c1ccc2c3c(oc2c1)CNCC3 [Example 344] |
| < 500 |  | O=S(=O)(c1cccc(F)c1)c1ccc2c3c(oc2c1)C(C1CCOCC1)NCC3 (stereo not drawn) [Example 496] |
| > 1000 |  | [O-][S+](c1ccc2c(c1)OC1CNCCC21)c1cc(Cl)ccc1Cl (stereo not drawn) [Example 135] |
| < 500 |  | N#CCCCCOc1cccc(S(=O)(=O)c2ccc3c(c2)OC2CNCCC32)c1 (stereo not drawn) [Example 574] |
| < 500 |  | O=S(=O)(c1cncc(F)c1)c1ccc2c3c(oc2c1)CNCC3 [Example 441] |
| > 1000 |  | [O-][S+](c1ccc2c(c1)OC1CNCCC21)c1cc(F)cc(F)c1F (stereo not drawn) [Example 385] |
| 500 to 1000 |  | O=S(=O)(Oc1ccc2c(c1)OC1CN(C3CCCCC3)CCC21)c1ccc(Cl)cc1 (stereo not drawn) [Example 802] |
| < 500 |  | CC(=O)NCC1NCCc2c1oc1ccc(S(=O)(=O)c3cccc(F)c3)cc21 (stereo not drawn) [Example 531, N-({6-[(3-fluorophenyl)sulfonyl]-1,2,3,4-tetrahydro[1]benzofuro[2,3-c]pyridin-1-yl}methyl)acetamide] |
| < 500 |  | Cc1cccc(S(=O)(=O)Oc2ccc3c(c2)OC2CNCCC32)c1 (stereo not drawn) [Example 641] |
| < 500 |  | O=S(=O)(c1cccc(F)c1)c1ccc2c3c(oc2c1)CNCC3 [Example 341] |
| < 500 |  | Cc1c(S(=O)(=O)Nc2ccc3c(c2)C2CCNCC2O3)sc2ccc(Cl)cc12 (stereo not drawn) [Example 830] |
| < 500 |  | CC(C)Oc1cccc(S(=O)(=O)c2ccc3c4c(oc3c2)C2(CCOC2)NCC4)c1 (single isomer, unassigned) [Example 32, 7-{[3-(propan-2-yloxy)phenyl]sulfonyl}-3,4,4′,5′-tetrahydro-2H-spiro[1-benzofuro[2,3-c]pyridine-1,3′-furan]] |
| < 500 |  | Cc1ccc(S(=O)(=O)Oc2ccc3c(c2)OC2CNCCC32)cc1C (stereo not drawn) [Example 649] |
| < 500 |  | COc1c(F)cc(F)cc1S(=O)(=O)c1ccc2c(c1)OC1CNCCC21 (stereo not drawn) [Example 463] |
| < 500 |  | O=S(=O)(c1ccc2c(c1)OC1CNCCC21)c1cccnc1C(F)(F)F (stereo not drawn) [Example 423] |
| 500 to 1000 |  | CC(=O)Nc1ccc(S(=O)(=O)c2ccc3oc4c(c3c2)CCNC4)cc1 [Example 272] |
| < 500 |  | O=S(=O)(Oc1ccc2c(c1)OC1CNCCC21)c1cccc(Cl)c1Cl (stereo not drawn) [Example 678] |
| < 500 |  | COc1ccc(S(=O)(=O)c2ccc3c4c(oc3c2)CNCC4)cc1 [Example 198] |
| < 500 |  | Cc1ccncc1S(=O)(=O)c1ccc2c3c(oc2c1)C(C)(C)NCC3 [Example 379] |
| < 500 |  | O=S(=O)(c1ccc2c(c1)OC1CNCCC21)c1cccc(Cl)c1Cl (stereo not drawn) [Example 123] |
| < 500 |  | O=S(=O)(Nc1ccc2c(c1)C1CCNCC1O2)c1ccc(Cl)c(Cl)c1 (stereo not drawn) [Example 827] |
| 500 to 1000 |  | CCN1CCC2c3ccc(S(=O)(=O)c4ccccc4)cc3OC2C1 (stereo not drawn) [Example 605] |

| SMILES | Ki (Table 1, class symbols) [nM] | Ki (specific data) [nM] |
| --- | --- | --- |
| O=S(=O)(c1ccc2c(c1)OC1CNCCC21)c1cccnc1F (stereo not drawn) [Example 382] | < 500 |  |
| CC12CCNCC1Oc1cc(S(=O)(=O)c3cccc(OC(F)(F)F)c3)ccc12 (stereo not drawn) [Example 358, 4a-methyl-7-{[3-(trifluoromethoxy)phenyl]sulfo-nyl}-1,2,3,4,4a,9a-hexahydro[1]benzofuro[2,3-c]pyridine] | < 500 |  |
| CC12CCNCC1Oc1ccc(OS(=O)(=O)c3ccc4ccccc4c3)cc12 (stereo not drawn) [Example 769] | < 500 |  |
| [O-][S+](c1cncc(F)c1)c1ccc2c(c1)OC1CNCCC21 (stereo not drawn) [Example 396] | > 1000 |  |
| [O-][S+](c1ccc2c(c1)OC1CNCCC21)c1cccnc1Cl (stereo not drawn) [Example 389] | > 1000 |  |

From US8765779B2, “Tricyclic derivatives and their pharmaceutical use and compositions” (Cephalon, Inc., priority 2009, dated 2014)
